Assay results: PubChem BioAssay (NCI)
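Each compound was tested at five concentrations against cells in 96-well plates for 48 hours. TGI: total growth inhibition.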

Experiments:
Assay in all cases: inhibition of tumour cell growth, NCI panel, 48 h
UACC-257 melanoma = test system: UACC-257 melanoma
SNB-75 CNS = test system: SNB-75 CNS
SR leukemia = test system: SR leukemia
UO-31 renal = test system: UO-31 renal
M19-MEL melanoma = test system: M19-MEL melanoma
U251 CNS = test system: U251 CNS
SF-268 CNS = test system: SF-268 CNS
OVCAR-3 ovarian = test system: OVCAR-3 ovarian
LXFL 529 NSCLC = test system: LXFL 529 NSCLC
A498 renal = test system: A498 renal
SK-MEL-28 melanoma = test system: SK-MEL-28 melanoma
IGROV1 ovarian = test system: IGROV1 ovarian
786-0 renal = test system: 786-0 renal
HOP-62 NSCLC = test system: HOP-62 NSCLC
SK-OV-3 ovarian = test system: SK-OV-3 ovarian
RXF-631 renal = test system: RXF-631 renal
HCT-116 colon = test system: HCT-116 colon
OVCAR-4 ovarian = test system: OVCAR-4 ovarian
SNB-78 CNS = test system: SNB-78 CNS
KM20L2 colon = test system: KM20L2 colon
OVCAR-8 ovarian = test system: OVCAR-8 ovarian
HCC-2998 colon = test system: HCC-2998 colon
HT29 colon = test system: HT29 colon
RXF 393 renal = test system: RXF 393 renal
CCRF-CEM leukemia = test system: CCRF-CEM leukemia
DLD-1 colon = test system: DLD-1 colon
SNB-19 CNS = test system: SNB-19 CNS
SN12C renal = test system: SN12C renal
NCI-H460 lung = test system: NCI-H460 lung
M14 melanoma = test system: M14 melanoma
CAKI-1 renal = test system: CAKI-1 renal
NCI-H522 lung = test system: NCI-H522 lung
EKVX NSCLC = test system: EKVX NSCLC
NCI-H23 lung = test system: NCI-H23 lung
HOP-92 NSCLC = test system: HOP-92 NSCLC
XF 498 CNS = test system: XF 498 CNS
A549 NSCLC = test system: A549 NSCLC
HL-60(TB) leukemia = test system: HL-60(TB) leukemia
NCI-H226 lung = test system: NCI-H226 lung
K-562 leukemia = test system: K-562 leukemia
MALME-3M melanoma = test system: MALME-3M melanoma
MOLT-4 leukemia = test system: MOLT-4 leukemia
SF-539 CNS = test system: SF-539 CNS
DMS 273 small cell lung = test system: DMS 273 small cell lung
RPMI-8226 leukemia = test system: RPMI-8226 leukemia
SK-MEL-2 melanoma = test system: SK-MEL-2 melanoma
HOP-18 NSCLC = test system: HOP-18 NSCLC
SF-295 CNS = test system: SF-295 CNS
TK-10 renal = test system: TK-10 renal
SW-620 colon = test system: SW-620 colon
UACC-62 melanoma = test system: UACC-62 melanoma
ACHN renal = test system: ACHN renal
COLO 205 colon = test system: COLO 205 colon
HCT-15 colon = test system: HCT-15 colon
OVCAR-5 ovarian = test system: OVCAR-5 ovarian
KM12 colon = test system: KM12 colon
LOX IMVI melanoma = test system: LOX IMVI melanoma
SK-MEL-5 melanoma = test system: SK-MEL-5 melanoma
DMS 114 small cell lung = test system: DMS 114 small cell lung

## Cc1ccccc1NC(=O)C(=O)C1CN(c2ccccc2)N=C1N (stereo not given)
UACC-257 melanoma
  TGI: > 100 µM
SNB-75 CNS
  TGI: > 100 µM
SR leukemia
  TGI: > 100 µM
UO-31 renal
  TGI: > 100 µM
M19-MEL melanoma
  TGI: > 100 µM
U251 CNS
  TGI: > 100 µM
SF-268 CNS
  TGI: > 100 µM
OVCAR-3 ovarian
  TGI: > 100 µM
LXFL 529 NSCLC
  TGI: > 100 µM
A498 renal
  TGI: > 100 µM
SK-MEL-28 melanoma
  TGI: > 100 µM
IGROV1 ovarian
  TGI: > 100 µM
786-0 renal
  TGI: > 100 µM
HOP-62 NSCLC
  TGI: > 100 µM
SK-OV-3 ovarian
  TGI: > 100 µM
RXF-631 renal
  TGI: > 100 µM
HCT-116 colon
  TGI: > 100 µM
OVCAR-4 ovarian
  TGI: > 100 µM
SNB-78 CNS
  TGI: > 100 µM
KM20L2 colon
  TGI: > 100 µM
OVCAR-8 ovarian
  TGI: > 100 µM
HCC-2998 colon
  TGI: > 100 µM
HT29 colon
  TGI: > 100 µM
RXF 393 renal
  TGI: > 100 µM
CCRF-CEM leukemia
  TGI: > 100 µM
DLD-1 colon
  TGI: > 100 µM
SNB-19 CNS
  TGI: > 100 µM
SN12C renal
  TGI: > 100 µM
NCI-H460 lung
  TGI: > 100 µM
M14 melanoma
  TGI: > 100 µM
CAKI-1 renal
  TGI: > 100 µM
NCI-H522 lung
  TGI: > 100 µM
EKVX NSCLC
  TGI: > 100 µM
NCI-H23 lung
  TGI: > 100 µM
HOP-92 NSCLC
  TGI: > 100 µM
XF 498 CNS
  TGI: > 100 µM
A549 NSCLC
  TGI: > 100 µM
HL-60(TB) leukemia
  TGI: > 100 µM
NCI-H226 lung
  TGI: > 100 µM
K-562 leukemia
  TGI: > 100 µM
MALME-3M melanoma
  TGI: > 100 µM
MOLT-4 leukemia
  TGI: > 100 µM
SF-539 CNS
  TGI: > 100 µM

## CCCCCCCCNC(=O)SCCCC
SNB-75 CNS
  TGI: 68.8 µM
DMS 273 small cell lung
  TGI: > 100 µM
UO-31 renal
  TGI: 65.1 µM
M19-MEL melanoma
  TGI: > 100 µM
RPMI-8226 leukemia
  TGI: 58.7 µM
U251 CNS
  TGI: > 100 µM
SF-268 CNS
  TGI: > 100 µM
OVCAR-3 ovarian
  TGI: > 100 µM
LXFL 529 NSCLC
  TGI: > 100 µM
A498 renal
  TGI: > 100 µM
SK-MEL-28 melanoma
  TGI: > 100 µM
SK-MEL-2 melanoma
  TGI: 56.2 µM
IGROV1 ovarian
  TGI: > 100 µM
786-0 renal
  TGI: > 100 µM
HOP-18 NSCLC
  TGI: > 100 µM
SK-OV-3 ovarian
  TGI: > 100 µM
RXF-631 renal
  TGI: > 100 µM
SF-295 CNS
  TGI: > 100 µM
OVCAR-4 ovarian
  TGI: > 100 µM
KM20L2 colon
  TGI: > 100 µM
OVCAR-8 ovarian
  TGI: > 100 µM
TK-10 renal
  TGI: > 100 µM
SW-620 colon
  TGI: > 100 µM
HT29 colon
  TGI: 59.4 µM
RXF 393 renal
  TGI: 68 µM
UACC-62 melanoma
  TGI: > 100 µM
ACHN renal
  TGI: > 100 µM
COLO 205 colon
  TGI: > 100 µM
CCRF-CEM leukemia
  TGI: 69 µM
DLD-1 colon
  TGI: > 100 µM
HCT-15 colon
  TGI: > 100 µM
OVCAR-5 ovarian
  TGI: > 100 µM
SNB-19 CNS
  TGI: 87.9 µM
SN12C renal
  TGI: > 100 µM
KM12 colon
  TGI: > 100 µM
NCI-H460 lung
  TGI: 82.2 µM
M14 melanoma
  TGI: > 100 µM
CAKI-1 renal
  TGI: 61.9 µM
NCI-H522 lung
  TGI: 76.7 µM
EKVX NSCLC
  TGI: 80.1 µM
NCI-H23 lung
  TGI: > 100 µM
LOX IMVI melanoma
  TGI: 39.2 µM
SK-MEL-5 melanoma
  TGI: 44.4 µM
HOP-92 NSCLC
  TGI: 49 µM
XF 498 CNS
  TGI: 37.5 µM
A549 NSCLC
  TGI: > 100 µM
HL-60(TB) leukemia
  TGI: 43.7 µM
K-562 leukemia
  TGI: > 100 µM
MALME-3M melanoma
  TGI: 63.1 µM
MOLT-4 leukemia
  TGI: 84.9 µM
SF-539 CNS
  TGI: > 100 µM

## CC1(C)C(=NNC(=S)NN)C(C)(C)C1=NNC(=S)NN
UACC-257 melanoma
  TGI: > 100 µM
SNB-75 CNS
  TGI: > 100 µM
M19-MEL melanoma
  TGI: > 100 µM
RPMI-8226 leukemia
  TGI: > 100 µM
SF-268 CNS
  TGI: > 100 µM
OVCAR-3 ovarian
  TGI: > 100 µM
SK-MEL-28 melanoma
  TGI: > 100 µM
SK-MEL-2 melanoma
  TGI: > 100 µM
IGROV1 ovarian
  TGI: > 100 µM
786-0 renal
  TGI: > 100 µM
HOP-62 NSCLC
  TGI: > 100 µM
SK-OV-3 ovarian
  TGI: > 100 µM
RXF-631 renal
  TGI: > 100 µM
SF-295 CNS
  TGI: > 100 µM
OVCAR-4 ovarian
  TGI: > 100 µM
KM20L2 colon
  TGI: > 100 µM
OVCAR-8 ovarian
  TGI: > 100 µM
HCC-2998 colon
  TGI: > 100 µM
TK-10 renal
  TGI: > 100 µM
SW-620 colon
  TGI: > 100 µM
HT29 colon
  TGI: > 100 µM
RXF 393 renal
  TGI: > 100 µM
UACC-62 melanoma
  TGI: > 100 µM
DMS 114 small cell lung
  TGI: > 100 µM
ACHN renal
  TGI: > 100 µM
COLO 205 colon
  TGI: > 100 µM
CCRF-CEM leukemia
  TGI: > 100 µM
DLD-1 colon
  TGI: > 100 µM
OVCAR-5 ovarian
  TGI: > 100 µM
SNB-19 CNS
  TGI: > 100 µM
SN12C renal
  TGI: > 100 µM
M14 melanoma
  TGI: > 100 µM
CAKI-1 renal
  TGI: > 100 µM
NCI-H522 lung
  TGI: > 100 µM
EKVX NSCLC
  TGI: > 100 µM
NCI-H23 lung
  TGI: > 100 µM
LOX IMVI melanoma
  TGI: > 100 µM
SK-MEL-5 melanoma
  TGI: > 100 µM
HOP-92 NSCLC
  TGI: > 100 µM
XF 498 CNS
  TGI: > 100 µM
A549 NSCLC
  TGI: > 100 µM
NCI-H226 lung
  TGI: > 100 µM
K-562 leukemia
  TGI: > 100 µM
MALME-3M melanoma
  TGI: > 100 µM
SF-539 CNS
  TGI: > 100 µM

## CC(=O)Nc1cccc2[nH]c3ccccc3c(=O)c12
UACC-257 melanoma
  TGI: 58.3 µM
SNB-75 CNS
  TGI: 65.9 µM
DMS 273 small cell lung
  TGI: > 100 µM
UO-31 renal
  TGI: 32.7 µM
M19-MEL melanoma
  TGI: 51.1 µM
RPMI-8226 leukemia
  TGI: 43.8 µM
U251 CNS
  TGI: 75.5 µM
SF-268 CNS
  TGI: 95.4 µM
OVCAR-3 ovarian
  TGI: 39.5 µM
A498 renal
  TGI: 29.6 µM
SK-MEL-28 melanoma
  TGI: 92.3 µM
SK-MEL-2 melanoma
  TGI: 38.7 µM
IGROV1 ovarian
  TGI: 70.3 µM
786-0 renal
  TGI: 51.1 µM
HOP-18 NSCLC
  TGI: 38.6 µM
SK-OV-3 ovarian
  TGI: 67.4 µM
RXF-631 renal
  TGI: 94.8 µM
HCT-116 colon
  TGI: 28.6 µM
SF-295 CNS
  TGI: 51.1 µM
OVCAR-4 ovarian
  TGI: 65.1 µM
KM20L2 colon
  TGI: 83.3 µM
OVCAR-8 ovarian
  TGI: 45.1 µM
TK-10 renal
  TGI: 50.1 µM
SW-620 colon
  TGI: 58.3 µM
HT29 colon
  TGI: 40.9 µM
UACC-62 melanoma
  TGI: 31.1 µM
DMS 114 small cell lung
  TGI: 79.6 µM
ACHN renal
  TGI: 52.3 µM
COLO 205 colon
  TGI: 34 µM
CCRF-CEM leukemia
  TGI: > 100 µM
DLD-1 colon
  TGI: 53.6 µM
HCT-15 colon
  TGI: 42.7 µM
OVCAR-5 ovarian
  TGI: 54.2 µM
SNB-19 CNS
  TGI: 64.1 µM
SN12C renal
  TGI: > 100 µM
KM12 colon
  TGI: 41.2 µM
NCI-H460 lung
  TGI: 43.2 µM
M14 melanoma
  TGI: > 100 µM
CAKI-1 renal
  TGI: 45.3 µM
NCI-H522 lung
  TGI: 26.2 µM
EKVX NSCLC
  TGI: 78.6 µM
NCI-H23 lung
  TGI: 29.5 µM
SK-MEL-5 melanoma
  TGI: 30.4 µM
XF 498 CNS
  TGI: 50.2 µM
A549 NSCLC
  TGI: 55.6 µM
HL-60(TB) leukemia
  TGI: 39.8 µM
NCI-H226 lung
  TGI: 40.5 µM
K-562 leukemia
  TGI: > 100 µM
MALME-3M melanoma
  TGI: 50.1 µM
MOLT-4 leukemia
  TGI: > 100 µM
SF-539 CNS
  TGI: 63.7 µM
